US11109538B2, “Method for producing galanthamine by a plant and electrical stimulation device” (Industrial Technology Research Institute, priority 2017, dated 2021)

Tested on: Lycoris aurea
Experiment: Galanthamine release of plants subjected to chemical inducer treatment (LC-MS of lyophilized medium)
Type: in vivo
Conditions: for Amounts of galanthamine released into the medium: MS medium with 25 μM chemical inducer, whole plants of Lycoris aurea
Procedure: MS mediums containing chemical inducers (chitin (CA), salicylic acid (SA) and methyl jasmonate (MJ)) (final concentration of the chemical inducer is 25 μM) were prepared. Since the chemical inducers could not be high-strength autoclaved, after the preparations of the chemical inducers at room temperature were completed, sterilization by filtration was performed on the chemical inducers in a laminar flow. In the blank group, the medium contained no agent.
Healthy plants of Lycoris aurea with leaves and root with a bulb diameter of 0.6-0.8 cm were selected and withered epidermis on the bulb thereof was removed. The plant mentioned above was placed in a test tube having MS medium containing a chemical inducer and cultured under an illumination of 3000-4000 Lux with illumination time 16 hours an dark time 8 hours at an ambient temperature of 25-27° C.
30 mL of medium was recovered on the Day 0, Day 3, Day 7, Day 14, Day 28 and Day 35 of the culturing. The recovered medium was lyophilized to form a powder. A liquid chromatography-mass spectrometry analysis was performed on the obtained powder to determine the content of galanthamine therein to investigate the effect of the chemical stimulation treatment mentioned above on the plant that produces galanthamine and releases it into the medium.

CC/C=C\CC1C(=O)CCC1CC(=O)OC (centres unmarked) [Methyl jasmonate, methyl jasmonate]
Amounts of galanthamine released into the medium (Day 0 of culturing): 0 ppm | Amounts of galanthamine released into the medium (Day 3 of culturing): 0.0153 ppm | Amounts of galanthamine released into the medium (Day 7 of culturing): 0.0312 ppm | Amounts of galanthamine released into the medium (Day 14 of culturing): 0.0066 ppm | Amounts of galanthamine released into the medium (Day 28 of culturing): 2.72 ppm | Amounts of galanthamine released into the medium (Day 35 of culturing): 0.9 ppm | Effect on production and release of galanthamine for the plant (comparison of chemical inducers) (Table 2 and FIG. 7, 25 μM chemical inducer, Lycoris aurea): best effect

O=C(O)c1ccccc1O [Salicylic acid, salicylic acid]
Amounts of galanthamine released into the medium (Day 0 of culturing): 0 ppm | Amounts of galanthamine released into the medium (Day 3 of culturing): 0.0183 ppm | Amounts of galanthamine released into the medium (Day 7 of culturing): 0.0077 ppm | Amounts of galanthamine released into the medium (Day 14 of culturing): 0.0142 ppm | Amounts of galanthamine released into the medium (Day 28 of culturing): 0.36 ppm | Amounts of galanthamine released into the medium (Day 35 of culturing): 1.01 ppm

chitin
Amounts of galanthamine released into the medium (Day 0 of culturing): 0 ppm | Amounts of galanthamine released into the medium (Day 3 of culturing): 0.0015 ppm | Amounts of galanthamine released into the medium (Day 7 of culturing): 0.0001 ppm | Amounts of galanthamine released into the medium (Day 14 of culturing): 0.74 ppm
